Results: patent US20090118135A1, “METHODS AND COMPOUNDS FOR REGULATING APOPTOSIS” (The Burnham Institute, priority 2007, published 2009)
Read-outs that look alike come from different tables or passages of the source.

Experiments:
[1] = target: T1, GST-Bcl-B (Homo sapiens, UniProt Q9HD36); test: Bcl-B/FITC-TR3-r8 fluorescence polarization competition (displacement) assay, HTS and dose-response
T1 sequence (Q9HD36 1-182 limits assumed): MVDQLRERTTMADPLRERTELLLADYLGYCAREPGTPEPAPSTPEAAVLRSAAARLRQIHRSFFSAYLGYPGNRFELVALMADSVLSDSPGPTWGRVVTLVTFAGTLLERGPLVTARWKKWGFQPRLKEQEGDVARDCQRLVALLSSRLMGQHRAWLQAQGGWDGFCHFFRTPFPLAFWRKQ

[2] = target: T2, GST-Bfl-1 (Homo sapiens, UniProt Q16548); test: Bfl-1/FITC-Bid BH3 competitive fluorescence polarization assay; format: binding; conditions: primary HTS hits, MLSCN library (PubChem SIDs), Table 5B
T2 construct: lacking their C-terminal transmembrane domains (about the last 20 amino acids) (“ΔTM”); made in house; host or cells: XL-1 Blue E. coli, pGEX 4T-1
T2 sequence (Q16548 1-155 limits assumed): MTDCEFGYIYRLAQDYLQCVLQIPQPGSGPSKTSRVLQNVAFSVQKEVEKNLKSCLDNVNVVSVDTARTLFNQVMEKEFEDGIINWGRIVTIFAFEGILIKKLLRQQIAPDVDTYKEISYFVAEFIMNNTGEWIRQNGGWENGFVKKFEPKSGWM

[3] = Table 8, NCI Structural library, Binding Assay, FP, Concentration 0.02 uM
[4] = read-out: Result Value (Result Type % Inhibition), BCL-b/TR3
[5] = Table 7, NCI Mechanistic library, Binding Assay, FP, Concentration 0.02 uM

Row | % Activity [2] | FRatio [2] | Structure (SMILES) | further results
1 | 50.8% | 0.86 | O=C(NCCCN1CCN(Cc2ccccc2)CC1)C1CCN(c2nnc(-n3cccc3)s2)CC1 [Compound 4250401] | 
2 | 65.7% | 0.53 | COC(=O)C1=C(C)N(c2ccccc2)/C(=C/c2cccs2)C1=O [Compound 17415043] | 
3 | 66.9% | 1.47 | COc1ccc(NC(=O)c2cc(CN3C(=O)c4ccccc4C3=O)ccc2OC)cn1 [Compound 3713992] | 
4 | 54.3% | 0.79 | Cc1c(C(=O)OCC2CCCO2)[nH]c2c1C(=O)CC(c1ccco1)C2 (centres unmarked) [Compound 4244684] | 
5 | 72.8% | 0.98 | CN(C)CCSc1nc(N)c2c3c(sc2n1)CN(C)CC3 [Compound 862887] | 
6 | 57.9% | 0.72 | O=C(C[n+]1ccc(C(=O)N/N=C/c2ccc(O)cc2)cc1)c1ccccc1 [Compound 14746260] | 

The next lines start with the compound.

Row | Structure (SMILES) | % Activity [2] | FRatio [2] | further results
7 | O=S(=O)(O)c1cc(O)c2c(O)c(/N=N/c3cccc4ccccc34)c(S(=O)(=O)O)cc2c1 [Compound 45208] |  |  | F Ratio [1, 3]: 0.1219; Is Hit [1, 3]: Yes; inhibition at 0.02 µM [1, 4]: 66.1%
8 | O=C1c2c(O)ccc(O)c2C(=O)c2c(NCCNCCO)ccc(NCCNCCO)c21 [M 6545] |  |  | Is Hit ([1]; LOPAC1280 library primary screen): Yes; F Ratio ([1]; LOPAC1280 library, fluorescence intensity normalized to plate negative controls): 1.1021; inhibition at 0.02 µM ([1]; read-out: Result Value (% Inhibition)): 148%
9 | O=C1c2cccc(NCCCNCCO)c2C(=O)c2cccc(NCCCNCCO)c21 [Compound 363998] |  |  | F Ratio [1, 5]: 0.2213; Is Hit [1, 5]: Yes; inhibition at 0.02 µM [1, 4]: 115%
10 | COc1ccc2c(c1)-c1nn(CCCN(C)C)c3ccc([N+](=O)[O-])c(c13)N2 [Compound 627168] |  |  | F Ratio [1, 5]: 0.1807; Is Hit [1, 5]: Yes; inhibition at 0.02 µM ([1]; read-out: Result Value (Result Type % Inhibition), BCL-b/TR3, Table 7, NCI Mechanistic library, Binding Assay, FP, Concentration 0.02 uM): 64.4%
11 | Cc1ccc(/N=N/c2c(O)c(S(=O)(=O)O)cc3cc(S(=O)(=O)O)ccc23)c(C)c1 [Compound 10455] |  |  | F Ratio [1]: 0.4406; Is Hit [1]: Yes; inhibition at 0.02 µM [1, 4]: 50.7%
12 | CC(C)CN(C(=O)COC(=O)c1cc2c(s1)CCC2)C1CCS(=O)(=O)C1 (centres unmarked) [Compound 3714271] | 53.1% | 0.67 | 
13 | CC(=O)c1ccc(NC(=O)c2ccc3nc(-c4ccco4)c(-c4ccco4)nc3c2)cc1 [Compound 14740115] | 59.5% | 0.97 | 
14 | Cc1ccc2c(c1C)NC(C(=O)O)C1CC=CC21 (centres unmarked) [Compound 844096] | 98.3% | 0.53 | 
15 | O=C(CSc1nnc(-c2ccco2)c(-c2ccco2)n1)Nc1ccccc1 [Compound 860234] | 71.5% | 1.17 | 
16 | CCOC(=O)c1ccc2c(c1)C1C=CCC1C(C(=O)O)N2 (centres unmarked) [Compound 4263567] | 111.5% | 0.4 | 
17 | Cc1cc(Cl)ccc1OCC(=O)OC(C)C(=O)N(C)C (centres unmarked) [Compound 867049] | 53.3% | 0.78 | 
18 | O=C(c1coc(=O)c(Br)c1)N1CCOCC1 [Compound 860621] | 84.9% | 0.55 | 
19 | Cc1nn2c(N)csc2nc1=O [Compound 846443] | 56.4% | 1.35 | 
20 | Cc1csc2nc(CNS(=O)(=O)N(C)C)cn12 [Compound 7970333] | 53.8% | 0.96 | 
21 | COc1cccc(C(=O)NC2CC3CCCC(C2)N3CC(=O)Nc2ccccc2)c1 (centres unmarked) [Compound 847772] | 90% | 0.72 | 
22 | Cc1ccc(S(=O)(=O)NC(=O)c2cc(C)n(CCCn3ccnc3)c2C)cc1 [Compound 3173759] | 61.5% | 0.99 | 
23 | Cc1cccc(OCC(=O)Nc2ccc(S(=O)(=O)N3CCCC3)cc2)c1 [Compound 7973703] | 79.2% | 0.82 | 
24 | N/C(=N\N=C\c1ccc(-c2ccc(O)c(C(=O)O)c2)o1)N[N+](=O)[O-] [Compound 17416093] | 84.4% | 0.7 | 
